The results in this text go back to US9029325B2, “Amylin analogues and pharmaceutical compositions thereof” (Novo Nordisk A/S, priority 2011, dated 2015).

This series is described as follows: Assay (III) ThT fibrillation assay for physical stability. The conditions noted are these: for Th T pH 4.0 lag time (h): 37° C., orbital shaking 960 rpm; for ThT pH 4.0 lag time: Table 9. It counts as physicochemical. An excerpt: Low physical stability of a polypeptide may lead to amyloid fibril formation, which is observed as well-ordered, thread-like macromolecular structures in the sample eventually resulting in gel formation. This has traditionally been measured by visual inspection of the sample. However, that kind of measurement is very subjective and depending on the observer. Therefore, the application of a small molecule indicator probe is much more advantageous. Thioflavin T (ThT) is such a probe and has a distinct fluorescence signature when binding to fibrils [Naiki et al. (1989) Anal. Biochem. 177, 244-249; LeVine (1999) Methods. Enzymol. […], 274-284].
The time course for fibril formation can be described by a sigmoidal curve with the following expression [Nielsen et al. (2001) Biochemistry 40, 6036-6046]:
[formula] Here, F is the ThT fluorescence at the time t. The constant t0 is the time needed to reach 50% of maximum fluorescence. The two important parameters describing fibril formation are the lag-time calculated by t0−2T and the apparent rate constant kapp=1/τ.
Few of those intermediates nucleate to form a template onto which further intermediates may assembly and the fibrillation proceeds. The lag-time corresponds to the interval in which the critical mass of nucleus is built up and the apparent rate constant is the rate with which the fibril itself is formed.
Samples were prepared freshly before each assay. Each sample composition is described in each example. The pH of the sample was adjusted to the desired value using appropriate amounts of concentrated NaOH and HClO4 or HCl. Thioflavin T was added to the samples from a stock solution in H2O to a final concentration of 1 μM.
Sample aliquots of 200 μl were placed in a 96 well microtiter plate (Packard OptiPlate™-96, white polystyrene). Usually, four or eight replica of each sample (corresponding to one test condition) were placed in one column of wells. The plate was sealed with Scotch Pad (Qiagen).
Incubation at given temperature, shaking and measurement of the ThT fluorescence emission were done in a Fluoroskan Ascent FL fluorescence platereader or Varioskan platereader (Thermo Labsystems). The temperature was adjusted to 37° C. The orbital shaking was adjusted to 960 rpm with an amplitude of 1 mm in all the presented data. Fluorescence measurement was done using excitation through a 444 nm filter and measurement of emission through a 485 nm filter.
Each run was initiated by incubating the plate at the assay temperature for 10 min. The plate was measured every 20 minutes for a desired period of time. Between each measurement, the plate was shaken and heated as described.
The measurement points were saved in Microsoft Excel format for further processing and curve drawing and fitting was performed using GraphPad Prism. The background emission from ThT in the absence of fibrils was negligible. The data points are typically a mean of four or eight samples and shown with standard deviation error bars. Only data obtained in the same experiment (i.e. samples on the same plate) are presented in the same graph ensuring a relative measure of fibrillation […].
The data set may be fitted to Eq. (1). However, since full sigmodial curves in this case are not always achieved during the measurement time, the degree of fibrillation is expressed as ThT fluorescence tabulated as the mean of the samples and shown with the standard deviation at various time points.
The polypeptide concentration in each of the tested formulations were measured both before application in the ThT fibrillation assay (“Initial”) and after completion of the ThT fibrillation (“After ThT assay”). Concentrations were determined by reverse HPLC methods using a pramlintide standard as a reference. Before measurement after completion 150 μl was collected from each of the replica and transferred to an Eppendorf tube. These were centrifuged at 30000 G for 40 mins. […]

Starred links: 1 amine or outer side, 2 acyl side, 3 side chain; linkers in the order of their positions; H or OH if unused. Positions of bridges follow the written chain, without caps; N, C: chain ends. Residues, ends and D or L forms follow the SMILES beside them. *: point of attachment. C20 diacid = O=C(O)CCCCCCCCCCCCCCCCCCC(=O)*; γGlu = O=C(O)[C@H](CCC(=O)[*:2])N[*:1]

On to `CC[C@H](C)[C@H](NC(=O)[C@@H]1CCCN1C(=O)CNC(=O)[C@H](Cc1ccccc1)NC(=O)[C@H](CC(N)=O)NC(=O)[C@H](CC(N)=O)NC(=O)[C@H](CO)NC(=O)[C@H](CO)NC(=O)[C@H](Cc1c[nH]cn1)NC(=O)[C@H](Cc1c[nH]cn1)NC(=O)[C@H](CC(C)C)NC(=O)[C@H](Cc1ccccc1)NC(=O)[C@H](CCC(=O)O)NC(=O)[C@H](C)NC(=O)[C@H](CC(C)C)NC(=O)[C@H](CCCNC(=N)N)NC(=O)[C@H](CCC(N)=O)NC(=O)[C@@H](NC(=O)[C@H](C)NC(=O)[C@@H]1CSSC[C@H](NC(=O)[C@H](CCCCN)NC(=O)CC[C@H](NC(=O)CCCCCCCCCCCCCCCCCCC(=O)O)C(=O)O)C(=O)N[C@@H](CC(N)=O)C(=O)N[C@@H]([C@@H](C)O)C(=O)N[C@@H](C)C(=O)N[C@@H]([C@@H](C)O)C(=O)N1)[C@@H](C)O)C(=O)N[C@@H](CC(C)C)C(=O)N1CCC[C@H]1C(=O)N1CCC[C@H]1C(=O)N[C@H](C(=O)N[C@@H](CC(N)=O)C(=O)N[C@H](C(=O)NCC(=O)N[C@@H](CO)C(=O)N[C@@H](CCC(N)=O)C(=O)N[C@H](C(=O)N1CCC[C@H]1C(N)=O)[C@@H](C)O)C(C)C)[C@@H](C)O` [Example 135, N-alpha-[(S)-4-Carboxy-4-(19-carboxynonadecanoylamino)butyryl]-[Glu14, His17, Gln35, Pro37]-pramlintide] ({C20 diacid-γGlu}-KCNTATCATQRLAEFLHHSSNNFGPILPPTNVGSQTP-NH2; disulfide 2-7), for which the “Th T pH 4.0 lag time (h)” value is on record as more than 45 h and the “ThT pH 4.0 lag time” value is listed as more than 45 hr.

Consider `CC[C@H](C)[C@H](NC(=O)[C@@H]1CCCN1C(=O)CNC(=O)[C@H](Cc1ccccc1)NC(=O)[C@H](CC(N)=O)NC(=O)[C@H](CCC(N)=O)NC(=O)[C@H](CO)NC(=O)[C@H](CO)NC(=O)[C@H](Cc1c[nH]cn1)NC(=O)[C@H](Cc1c[nH]cn1)NC(=O)[C@H](CC(C)C)NC(=O)[C@H](Cc1ccccc1)NC(=O)[C@H](CCC(=O)O)NC(=O)[C@H](C)NC(=O)[C@H](CC(C)C)NC(=O)[C@H](CCCNC(=N)N)NC(=O)[C@H](CCC(N)=O)NC(=O)[C@@H](NC(=O)[C@H](C)NC(=O)[C@@H]1CSSC[C@H](NC(=O)[C@H](CCCCN)NC(=O)CC[C@H](NC(=O)CCCCCCCCCCCCCCCCCCC(=O)O)C(=O)O)C(=O)N[C@@H](CC(N)=O)C(=O)N[C@@H]([C@@H](C)O)C(=O)N[C@@H](C)C(=O)N[C@@H]([C@@H](C)O)C(=O)N1)[C@@H](C)O)C(=O)N[C@@H](CC(C)C)C(=O)N1CCC[C@H]1C(=O)N1CCC[C@H]1C(=O)N[C@H](C(=O)N[C@@H](CC(N)=O)C(=O)N[C@H](C(=O)NCC(=O)N[C@@H](CO)C(=O)N[C@@H](CCC(N)=O)C(=O)N[C@H](C(=O)N1CCC[C@H]1C(N)=O)[C@@H](C)O)C(C)C)[C@@H](C)O` [Example 136, N-alpha-[(S)-4-Carboxy-4-(19-carboxynonadecanoylamino)butyryl]-[Glu14, His17, Gln21, Gln35, Pro37]-pramlintide] ({C20 diacid-γGlu}-KCNTATCATQRLAEFLHHSSQNFGPILPPTNVGSQTP-NH2; disulfide 2-7), for which the “Th T pH 4.0 lag time (h)” value is given as more than 45 h and the “ThT pH 4.0 lag time” value is more than 45 hr.

Regarding `CC[C@H](C)[C@H](NC(=O)[C@@H]1CCCN1C(=O)CNC(=O)[C@H](Cc1ccccc1)NC(=O)[C@H](CC(N)=O)NC(=O)[C@H](CCC(N)=O)NC(=O)[C@H](CO)NC(=O)[C@H](CO)NC(=O)[C@H](Cc1c[nH]cn1)NC(=O)[C@H](Cc1c[nH]cn1)NC(=O)[C@H](CC(C)C)NC(=O)[C@H](Cc1ccccc1)NC(=O)[C@H](CCC(=O)O)NC(=O)[C@H](C)NC(=O)[C@H](CC(C)C)NC(=O)[C@H](CCCNC(=N)N)NC(=O)[C@H](CCC(N)=O)NC(=O)[C@@H](NC(=O)[C@H](C)NC(=O)[C@@H]1CSSC[C@H](NC(=O)CNC(=O)CC[C@H](NC(=O)CCCCCCCCCCCCCCCCCCC(=O)O)C(=O)O)C(=O)N[C@@H](CC(N)=O)C(=O)N[C@@H]([C@@H](C)O)C(=O)N[C@@H](C)C(=O)N[C@@H]([C@@H](C)O)C(=O)N1)[C@@H](C)O)C(=O)N[C@@H](CC(C)C)C(=O)N1CCC[C@H]1C(=O)N1CCC[C@H]1C(=O)N[C@H](C(=O)N[C@@H](CC(N)=O)C(=O)N[C@H](C(=O)NCC(=O)N[C@@H](CO)C(=O)N[C@@H](CCC(N)=O)C(=O)N[C@H](C(=O)N1CCC[C@H]1C(N)=O)[C@@H](C)O)C(C)C)[C@@H](C)O` [Example 137, N-alpha-[(S)-4-Carboxy-4-(19-carboxynonadecanoylamino)butyryl]-[Gly1, Glu14, His17, Gln21, Gln35, Pro37]-pramlintide] ({C20 diacid-γGlu}-GCNTATCATQRLAEFLHHSSQNFGPILPPTNVGSQTP-NH2; disulfide 2-7), the “Th T pH 4.0 lag time (h)” value was 29 h.

`CC[C@H](C)[C@H](NC(=O)[C@@H]1CCCN1C(=O)CNC(=O)[C@H](Cc1ccccc1)NC(=O)[C@H](CC(N)=O)NC(=O)[C@H](CC(N)=O)NC(=O)[C@H](CO)NC(=O)[C@H](CO)NC(=O)[C@H](Cc1c[nH]cn1)NC(=O)[C@H](Cc1c[nH]cn1)NC(=O)[C@H](CC(C)C)NC(=O)[C@H](Cc1ccccc1)NC(=O)[C@H](CCC(=O)O)NC(=O)[C@H](C)NC(=O)[C@H](CC(C)C)NC(=O)[C@H](CCCCN)NC(=O)[C@H](CCC(N)=O)NC(=O)[C@@H](NC(=O)[C@H](C)NC(=O)[C@@H]1CSSC[C@H](NC(=O)[C@H](CCCCN)NC(=O)CC[C@H](NC(=O)CCCCCCCCCCCCCCCCCCC(=O)O)C(=O)O)C(=O)N[C@@H](CC(N)=O)C(=O)N[C@@H]([C@@H](C)O)C(=O)N[C@@H](C)C(=O)N[C@@H]([C@@H](C)O)C(=O)N1)[C@@H](C)O)C(=O)N[C@@H](CC(C)C)C(=O)N1CCC[C@H]1C(=O)N1CCC[C@H]1C(=O)N[C@H](C(=O)N[C@@H](CC(N)=O)C(=O)N[C@H](C(=O)NCC(=O)N[C@@H](CO)C(=O)N[C@@H](CC(N)=O)C(=O)N[C@H](C(=O)N1CCC[C@H]1C(N)=O)[C@@H](C)O)C(C)C)[C@@H](C)O` [Example 145, N-alpha-[(S)-4-Carboxy-4-(19-carboxynonadecanoylamino)butyryl]-[Lys11, Glu14, His17, Pro37]-pramlintide] ({C20 diacid-γGlu}-KCNTATCATQKLAEFLHHSSNNFGPILPPTNVGSNTP-NH2; disulfide 2-7): the “Th T pH 4.0 lag time (h)” value is on record as more than 45 h and the “ThT pH 4.0 lag time” value was more than 45 hr.

Take `CC[C@H](C)[C@H](NC(=O)[C@@H]1CCCN1C(=O)CNC(=O)[C@H](Cc1ccccc1)NC(=O)[C@H](CC(N)=O)NC(=O)[C@@H](NC(=O)[C@H](CO)NC(=O)[C@H](CO)NC(=O)[C@H](Cc1c[nH]cn1)NC(=O)[C@H](Cc1c[nH]cn1)NC(=O)[C@H](CC(C)C)NC(=O)[C@H](Cc1ccccc1)NC(=O)[C@H](CCC(=O)O)NC(=O)[C@H](C)NC(=O)[C@H](CC(C)C)NC(=O)[C@H](CCCNC(=N)N)NC(=O)[C@H](CCC(N)=O)NC(=O)[C@@H](NC(=O)[C@H](C)NC(=O)[C@@H]1CSSC[C@H](NC(=O)[C@H](CCCCN)NC(=O)CC[C@H](NC(=O)CCCCCCCCCCCCCCCCCCC(=O)O)C(=O)O)C(=O)N[C@@H](CC(N)=O)C(=O)N[C@@H]([C@@H](C)O)C(=O)N[C@@H](C)C(=O)N[C@@H]([C@@H](C)O)C(=O)N1)[C@@H](C)O)[C@@H](C)O)C(=O)N[C@@H](CC(C)C)C(=O)N1CCC[C@H]1C(=O)N1CCC[C@H]1C(=O)N[C@H](C(=O)N[C@@H](CC(N)=O)C(=O)N[C@H](C(=O)NCC(=O)N[C@@H](CO)C(=O)N[C@@H](CC(N)=O)C(=O)N[C@H](C(=O)N1CCC[C@H]1C(N)=O)[C@@H](C)O)C(C)C)[C@@H](C)O` [Example 146, N-alpha-[(S)-4-Carboxy-4-(19-carboxynonadecanoylamino)butyryl]-[Glu14, His17, Thr21, Pro37]-pramlintide] ({C20 diacid-γGlu}-KCNTATCATQRLAEFLHHSSTNFGPILPPTNVGSNTP-NH2; disulfide 2-7 (inferred); C-terminus assumed): the “Th T pH 4.0 lag time (h)” value was more than 45 h and the “ThT pH 4.0 lag time” value is more than 45 hr.
